Laboratory results from ChEMBL document CHEMBL4706771, “Discovery of Orally Bioavailable Ligand Efficient Quinazolindiones as Potent and Selective Tankyrases Inhibitors” (ACS Med Chem Lett, 2021).

How the values were obtained:
[1] = Mutagenicity in Salmonella typhimurium TA100 by ames test; assay type: toxicity; conditions: salmonella enterica subsp. enterica serovar typhimurium
[2] = biological target: T1, Poly [ADP-ribose] polymerase tankyrase-1 (Homo sapiens, UniProt O95271); assay: Inhibition of human TNKS1 incubated for 1 to 2 hrs by fluorescence polarization assay
T1 sequence (O95271 whole entry): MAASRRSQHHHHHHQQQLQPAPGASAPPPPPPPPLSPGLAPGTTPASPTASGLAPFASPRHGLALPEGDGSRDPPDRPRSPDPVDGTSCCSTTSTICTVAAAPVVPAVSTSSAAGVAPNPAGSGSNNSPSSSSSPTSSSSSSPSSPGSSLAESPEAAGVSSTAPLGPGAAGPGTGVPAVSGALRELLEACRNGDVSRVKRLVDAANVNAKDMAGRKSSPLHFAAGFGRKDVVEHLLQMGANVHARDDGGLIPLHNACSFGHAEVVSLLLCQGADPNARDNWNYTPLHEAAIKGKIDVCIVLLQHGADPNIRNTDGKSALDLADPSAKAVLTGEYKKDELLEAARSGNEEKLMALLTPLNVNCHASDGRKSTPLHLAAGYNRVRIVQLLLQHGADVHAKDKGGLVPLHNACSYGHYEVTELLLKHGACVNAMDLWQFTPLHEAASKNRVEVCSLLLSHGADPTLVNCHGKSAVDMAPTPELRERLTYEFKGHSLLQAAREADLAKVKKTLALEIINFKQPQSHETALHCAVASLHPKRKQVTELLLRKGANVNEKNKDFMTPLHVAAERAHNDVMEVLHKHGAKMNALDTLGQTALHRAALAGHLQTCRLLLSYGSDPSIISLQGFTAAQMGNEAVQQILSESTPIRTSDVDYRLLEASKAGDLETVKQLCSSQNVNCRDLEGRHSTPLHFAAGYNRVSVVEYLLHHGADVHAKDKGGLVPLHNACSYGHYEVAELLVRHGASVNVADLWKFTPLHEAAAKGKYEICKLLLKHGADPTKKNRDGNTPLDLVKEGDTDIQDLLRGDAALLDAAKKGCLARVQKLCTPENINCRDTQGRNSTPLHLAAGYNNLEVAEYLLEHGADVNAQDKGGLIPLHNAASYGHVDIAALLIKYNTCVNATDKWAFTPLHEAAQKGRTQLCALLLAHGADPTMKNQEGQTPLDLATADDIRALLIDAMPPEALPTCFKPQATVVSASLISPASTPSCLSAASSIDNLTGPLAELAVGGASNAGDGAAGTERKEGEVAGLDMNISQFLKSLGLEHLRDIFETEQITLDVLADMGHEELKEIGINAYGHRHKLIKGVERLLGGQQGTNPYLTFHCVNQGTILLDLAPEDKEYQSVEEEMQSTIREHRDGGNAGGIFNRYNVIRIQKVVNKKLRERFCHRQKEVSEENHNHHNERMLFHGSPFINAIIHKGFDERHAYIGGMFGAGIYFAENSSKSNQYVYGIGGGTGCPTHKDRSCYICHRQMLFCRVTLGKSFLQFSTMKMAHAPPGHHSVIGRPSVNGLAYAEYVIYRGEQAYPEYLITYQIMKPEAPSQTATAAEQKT

[3] = Volume of distribution in Sprague-Dawley rat at 8.6 mg/kg, po or 0.5 mg/kg, iv; assay type: ADME, organism-based; conditions: in vivo
[4] = Dose normalised AUC in Beagle dog at 2 mg/kg, po; assay type: ADME, organism-based, Canis lupus familiaris; conditions: in vivo
[5] = Clearance in Beagle dog at 2 mg/kg, po or 1 mg/kg, iv; assay type: ADME, organism-based, Canis lupus familiaris; conditions: in vivo
[6] = Oral bioavailability in C57 mouse at 3 mg/kg; assay type: ADME, organism-based; conditions: in vivo
[7] = Volume of distribution in C57 mouse at 3 mg/kg, po or 1 mg/kg, iv; assay type: ADME, organism-based; conditions: in vivo
[8] = Half life in Sprague-Dawley rat at 8.6 mg/kg, po or 0.5 mg/kg, iv; assay type: ADME, organism-based; conditions: in vivo
[9] = Oral bioavailability in Beagle dog at 2 mg/kg; assay type: ADME, organism-based, Canis lupus familiaris; conditions: in vivo

Cc1cccc2c1c(=O)n(C[C@H]1CC[C@H](C(=O)O)CC1)c(=O)n2Cc1cccc(C(F)(F)F)c1C#N
Activity [1]: Non-Toxic
IC50 [2]: 4 nM
Vd [3]: 0.97 L/kg
AUC/dose [4]: 2937 ng·h/mL
clearance [5]: 3.15 mL/min/kg
bioavailability [6]: 37.1%
Vd [7]: 1.34 L/kg
half-life [8]: 3.89 h
bioavailability [9]: 52.2%
